Test results reported in article PMC7767506, “Synthesis and Characterization of Store-Operated Calcium Entry Inhibitors Active in the Submicromolar Range” (International Journal of Molecular Sciences, 2020).
“Also recorded” adds a separate entry of the source.

Key:
[1] = tested on: Jurkat cells; experiment: Cell death by trypan blue staining of Jurkat cells; type: cell-based, human
Experimental: As this diminution in IL-2 synthesis can both be explained by the decrease of its synthesis by all cells, or by a decrease in the number of cells that can synthesize IL-2, we next evaluated cell death by trypan blue staining in the presence of PHA stimulation with and without the addition of compound P11.
Forty-eight-well plates were seeded with 10^6 Jurkat T cells per well. Cells were then incubated for 24 h with or without 10 µg/mL PHA and 0 to 1 µM P11 in complete culture medium. After 24 h, supernatants were collected, and IL-2 amounts were quantified using a Quantikine Human IL-2 Immunoassay (R&D Systems Europe, Lille, France). Optical density (OD) was measured at 450 nm using a Victor3 plate reader (Perkin Elmer, Courtaboeuf, France). The concentration of supernatant IL-2 was determined from the OD curve obtained with the standard. Results were the mean of four repeats. In parallel plates, cell viability was accessed after treatment with trypan blue and counting with a Malassez hematimeter (Sigma-Aldrich, Saint Quentin Fallavier, France).

[2] = tested on: Orai1-expressing lymphoblastoid cell line; experiment: SOCE in Orai1-expressing lymphoblastoid cell line (LCL Orai1+); type: cell-based, human; conditions: 1 µM
Experimental: (§1) We next tested P11 efficacy on two lymphoblastoid cell lines (“LCL”) established from an Orai1-deficient with a severe combined immunodeficiency (“LCL Orai1−”) and a healthy (“LCL Orai1+”) patients (Figure 3C [19]). […] However, CaCl2 addition after 10 min of TG treatment was only able to induce a massive [Ca^2+]cyt rise in LCL expressing Orai1 proteins, confirming the SOCE default of the SCID patient.
(§2) [Ca^2+]cyt was recorded by a fluorimetric ratio technique as previously described. Leukocytes were spun and resuspended at a density of 10^6 cells/mL in Hepes buffered saline (HBS; 135 mM NaCl, 5.9 mM KCl, 1.2 mM MgCl2, 11.6 mM Hepes, 11.5 mM glucose adjusted to pH 7.3 with NaOH). Due to the presence of 0.002% Ca^2+ in the NaCl, this HBS medium contained 0.1 mM of Ca^2+. […] Ultraviolet light of 360 nm was used for excitation of Indo-1, and emissions at 405 and 480 nm were recorded. […] The maximum Indo-1 fluorescence (Rmax) was obtained by adding 1 µM ionomycin to the cell suspension in the presence of 10 mM extracellular CaCl2. Minimum fluorescence was determined following the depletion of external Ca^2+ with 5 mM EGTA.
(§3) To visualize the SOCE, cells were placed into the quartz cuvette and 0.5 EGTA was added just before the beginning of the recordings. […] In the dose-response experiments, different concentrations of 2-APB and its analogs were added 30 s prior to Ca^2+ readdition.

[3] = tested on: Orai1-deficient lymphoblastoid cell line; experiment: SOCE in Orai1-deficient lymphoblastoid cell line (LCL Orai1-); type: cell-based, human; conditions: 1 µM
Experimental: as §1, §2, §3

[4] = tested on: ER Ca2+ stores of L15 fibroblasts; experiment: Basal Ca2+ leak from ER stores, unidirectional 45Ca2+ flux in permeabilized L15 fibroblasts; type: cell-based
Experimental: (§4) Measurements of SERCA-mediated ^45Ca^2+ store loading and IP3-dependent release from the ER Ca^2+ store were performed on permeabilized cells in unidirectional conditions. As this approach required the use of cells forming strongly adherent monolayers, we used L15 fibroblasts stably overexpressing IP3R1, similarly to our previous work.
The L15 fibroblasts stably overexpressing IP3R1 were seeded in gelatin-coated 12-well plates (Greiner, Frickenhausen, Germany) at a density of 60,000 cells per well. Unidirectional ^45Ca^2+ flux experiments on confluent cell monolayers were performed at 30 °C after membrane permeabilization with saponin (40 µg/mL), exactly as previously described. After permeabilization, the non-mitochondrial Ca^2+ stores were loaded for 45 min in 120 mM KCl, 30 mM imidazole–HCl (pH 6.8), 5 mM MgCl2, 5 mM ATP, 0.44 mM EGTA, 10 mM NaN3, and 150 nM free ^45Ca^2+ (28 µCi mL^−1). Subsequently, efflux was initiated by incubation in efflux medium (120 mM KCl, 1 mM EGTA, 10 µM TG and 30 mM imidazole–HCl pH 6.8). […] The exact amount of Ca^2+ at each time point is calculated by summing in retrograde order the amount of radioactivity remaining in the cells at the end of the efflux and the radioactivity collected during the successive time intervals. […] These various parameters were measured both in control conditions or in the presence of various 2-APB analogs as indicated. […]

[5] = tested on: PHA-stimulated Jurkat cells; experiment: PHA-induced Ca2+ mobilization in Jurkat cells, Indo-1; type: cell-based, human
Excerpt: Having shown that compound P11 was able to block the Jurkat cell SOCE, we next performed experiments using phytohemagglutinin (“PHA”). PHA is commonly used to cross-link the T cell receptor allowing the synthesis of IL-2 and thereafter the T cell activation. […] Noteworthy, PHA was able to induce a weak Ca^2+ release from internal stores (orange curve). […] However, after reaching a peak at 180 s, the [Ca^2+]cyt started to decay and decreased to a value beneath the [Ca^2+]cyt before cell stimulation.
In experiments with PHA, cells were placed in the cuvette, and 0.9 mM CaCl2 was added to reach a 1 mM extracellular concentration. Free Ca^2+ concentrations were calculated using the Bad4 software

[6] = target: T1, IP3R1 (Mus musculus, UniProt P11881); experiment: IP3-induced Ca2+ release (IICR) in permeabilized L15 fibroblasts overexpressing IP3R1; type: cell-based
T1 construct: expressed in transfected cells; host or cells: L15 fibroblast cell line (gift of Katsuhiko Mikoshiba), saponin-permeabilized
T1 sequence (P11881 whole entry): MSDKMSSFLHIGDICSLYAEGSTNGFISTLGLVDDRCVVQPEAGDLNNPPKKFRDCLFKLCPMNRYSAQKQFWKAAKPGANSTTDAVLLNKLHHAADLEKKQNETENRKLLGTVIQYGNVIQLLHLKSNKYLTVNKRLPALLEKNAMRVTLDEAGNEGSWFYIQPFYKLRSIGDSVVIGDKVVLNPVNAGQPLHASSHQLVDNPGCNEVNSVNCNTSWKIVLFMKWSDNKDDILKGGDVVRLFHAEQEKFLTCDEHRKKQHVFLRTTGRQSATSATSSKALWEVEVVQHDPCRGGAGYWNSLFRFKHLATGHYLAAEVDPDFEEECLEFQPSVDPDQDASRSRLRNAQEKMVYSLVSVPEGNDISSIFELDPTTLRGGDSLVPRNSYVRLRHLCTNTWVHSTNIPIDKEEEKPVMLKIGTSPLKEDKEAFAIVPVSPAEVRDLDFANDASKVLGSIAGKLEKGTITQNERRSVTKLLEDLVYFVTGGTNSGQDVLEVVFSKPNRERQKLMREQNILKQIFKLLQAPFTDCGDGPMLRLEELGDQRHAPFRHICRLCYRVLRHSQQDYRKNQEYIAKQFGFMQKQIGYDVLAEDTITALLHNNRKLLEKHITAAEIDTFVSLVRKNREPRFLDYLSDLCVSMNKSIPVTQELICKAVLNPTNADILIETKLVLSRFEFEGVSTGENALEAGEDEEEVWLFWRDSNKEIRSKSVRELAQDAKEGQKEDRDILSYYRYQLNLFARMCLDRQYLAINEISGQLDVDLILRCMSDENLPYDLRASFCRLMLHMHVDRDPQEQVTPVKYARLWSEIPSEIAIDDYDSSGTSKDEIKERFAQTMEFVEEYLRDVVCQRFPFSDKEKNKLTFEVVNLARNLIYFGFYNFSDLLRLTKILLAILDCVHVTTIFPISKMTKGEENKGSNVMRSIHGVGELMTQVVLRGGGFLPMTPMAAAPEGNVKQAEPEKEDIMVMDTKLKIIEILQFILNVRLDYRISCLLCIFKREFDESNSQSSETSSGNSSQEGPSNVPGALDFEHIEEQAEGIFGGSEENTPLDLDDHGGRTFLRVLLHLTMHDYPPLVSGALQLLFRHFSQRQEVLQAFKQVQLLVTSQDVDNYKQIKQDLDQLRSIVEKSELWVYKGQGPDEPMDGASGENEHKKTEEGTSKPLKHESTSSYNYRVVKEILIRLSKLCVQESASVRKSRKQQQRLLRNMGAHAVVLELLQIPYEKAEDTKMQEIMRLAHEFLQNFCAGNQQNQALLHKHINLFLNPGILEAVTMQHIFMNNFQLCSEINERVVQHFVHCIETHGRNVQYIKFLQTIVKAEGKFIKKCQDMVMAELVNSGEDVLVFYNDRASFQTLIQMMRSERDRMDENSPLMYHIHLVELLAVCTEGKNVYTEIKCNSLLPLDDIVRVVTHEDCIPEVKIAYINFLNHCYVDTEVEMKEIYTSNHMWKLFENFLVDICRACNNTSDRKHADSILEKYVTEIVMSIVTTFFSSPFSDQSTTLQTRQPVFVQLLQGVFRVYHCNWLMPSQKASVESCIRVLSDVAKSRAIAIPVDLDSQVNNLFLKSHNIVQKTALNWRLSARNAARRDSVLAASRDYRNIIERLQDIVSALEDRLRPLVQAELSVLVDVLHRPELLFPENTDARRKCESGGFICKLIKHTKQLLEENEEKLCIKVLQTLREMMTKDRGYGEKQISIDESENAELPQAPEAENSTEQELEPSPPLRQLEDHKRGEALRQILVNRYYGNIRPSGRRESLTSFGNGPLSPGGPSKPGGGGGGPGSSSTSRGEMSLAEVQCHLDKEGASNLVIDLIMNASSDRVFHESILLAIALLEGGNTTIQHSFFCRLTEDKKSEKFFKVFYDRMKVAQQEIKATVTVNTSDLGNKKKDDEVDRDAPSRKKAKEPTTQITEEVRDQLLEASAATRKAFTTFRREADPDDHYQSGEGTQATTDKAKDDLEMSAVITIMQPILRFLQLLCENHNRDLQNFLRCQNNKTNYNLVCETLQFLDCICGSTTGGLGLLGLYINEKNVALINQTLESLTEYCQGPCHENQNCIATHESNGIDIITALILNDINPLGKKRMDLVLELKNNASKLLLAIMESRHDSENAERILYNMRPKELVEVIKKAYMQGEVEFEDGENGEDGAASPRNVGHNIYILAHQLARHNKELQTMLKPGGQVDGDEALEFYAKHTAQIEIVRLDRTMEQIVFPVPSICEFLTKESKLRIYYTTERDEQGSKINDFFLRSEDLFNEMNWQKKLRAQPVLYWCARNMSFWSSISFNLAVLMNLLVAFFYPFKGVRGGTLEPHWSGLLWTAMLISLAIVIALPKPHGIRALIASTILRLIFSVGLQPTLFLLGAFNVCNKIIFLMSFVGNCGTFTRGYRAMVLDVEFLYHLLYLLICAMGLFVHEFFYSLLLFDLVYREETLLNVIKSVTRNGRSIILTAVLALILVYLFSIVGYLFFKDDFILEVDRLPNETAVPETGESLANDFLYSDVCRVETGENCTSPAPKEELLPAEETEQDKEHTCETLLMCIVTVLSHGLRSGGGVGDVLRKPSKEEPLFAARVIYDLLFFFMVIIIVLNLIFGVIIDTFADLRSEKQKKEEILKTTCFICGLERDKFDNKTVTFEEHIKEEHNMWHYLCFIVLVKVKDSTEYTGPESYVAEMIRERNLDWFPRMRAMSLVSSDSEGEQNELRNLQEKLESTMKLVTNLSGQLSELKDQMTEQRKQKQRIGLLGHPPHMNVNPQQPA
Experimental: as §4
The L15 fibroblasts stably overexpressing IP3R1 were seeded in gelatin-coated 12-well plates (Greiner, Frickenhausen, Germany) at a density of 60,000 cells per well. Unidirectional ^45Ca^2+ flux experiments on confluent cell monolayers were performed at 30 °C after membrane permeabilization with saponin (40 µg/mL), exactly as previously described. After permeabilization, the non-mitochondrial Ca^2+ stores were loaded for 45 min in 120 mM KCl, 30 mM imidazole–HCl (pH 6.8), 5 mM MgCl2, 5 mM ATP, 0.44 mM EGTA, 10 mM NaN3, and 150 nM free ^45Ca^2+ (28 µCi mL^−1). Subsequently, efflux was initiated by incubation in efflux medium (120 mM KCl, 1 mM EGTA, 10 µM TG and 30 mM imidazole–HCl pH 6.8). The latter medium was replaced every two minutes for 18 minutes. The exact amount of Ca^2+ at each time point is calculated by summing in retrograde order the amount of radioactivity remaining in the cells at the end of the efflux and the radioactivity collected during the successive time intervals. This allows to calculate the steady-state content of the ER Ca^2+ stores (indicative for the SERCA activity, after subtraction of the loading achieved in the presence of 2 µM TG) the basal leak rate of Ca^2+ out of the stores and the IP3-induced Ca^2+ release after addition of IP3 (0.7 µM). These various parameters were measured both in control conditions or in the presence of various 2-APB analogs as indicated. To assess the effect of the 2-APB analogs on the SERCA-mediated loading of the ER Ca^2+ stores, the analogs were added during the ^45Ca^2+-loading phase as described previously. […]

**Q.** Which “dead cells (trypan blue)” value ([1]; 1 µM P11 alone, 24 h) does the source give for “2-(dibiphenyl-4-ylboryloxy)ethanamine [P11]” here?
**A.** Its value is 4.0 ± 0.4%.

**Q.** What about the “dead cells (trypan blue)” value ([1]; PHA + 1 µM P11, 24 h) of the same substance?
**A.** The value was 33.2 ± 1.3%.

**Q.** What about the “effect on [Ca2+]cyt after SOCE activation” value [2] of the same substance?
**A.** The value was “immediate decrease of [Ca^2+]cyt”.

**Q.** What about the “effect on [Ca2+]cyt after SOCE activation” value [3] of the same substance?
**A.** The value was “inefficient”.

**Q.** What about the “Ca2+ leak from the ER by an IP3-independent pathway” value [4] of the same substance?
**A.** Its value is “did not induce a Ca^2+ leak”.

**Q.** And the “PHA-induced Ca2+ release from internal stores” value ([5]; 1 µM)?
**A.** Its value is “did not affect”.

**Q.** And the “PHA-induced Ca2+ mobilization” value ([5]; increasing [P11], 10 µg/mL PHA, 1 mM extracellular CaCl2)?
**A.** The value was “largely inhibited”.

**Q.** And the “change of IP3R activity” value ([6]; 100 µM)?
**A.** The value was −29 ± 9%.

**Q.** And the “effect on IP3R” value ([6]; concentrations < 1 µM)?
**A.** Its value is “devoid of any inhibitory activity; also recorded: without any effect”.
